Results published in patent US8003324B2, “Modulation of sodium channels by nicotinamide adenine dinucleotide” (U.S. Department of Veterans Affairs, priority 2007, dated 2011).
Values joined by “and” are separate entries in the source; they are usually repeats but may differ in a detail not shown here. Equal values may be shown once. “Also recorded” adds a separate entry of the source.

Assays:
SCN5A^+/− mouse heart = assay: Ventricular arrhythmogenesis in Langendorff-perfused SCN5A+/- mouse heart (MAP recording, PES)
Protocol: Hearts from mice genetically modified to ablate one allele of SCN5A were isolated and Langendorff-perfused (3 ml/min at 37° C.) with Krebs-Henseleit solution (in mM: 119 NaCl, 25 NaHCO3, 4 KCl, 1.2 KH2PO4, 1 MgCl2, 1.8 CaCl2, 10 glucose and 2 sodium pyruvate) and allowed to beat intrinsically for 10 min. Monophasic action potentials (MAPs) were recorded using a MAP electrode (Harvard Apparatus, UK) placed on left ventricular epicardial surface. MAP signals were amplified, band-pass filtered (0.5 Hz to 1 kHz: Neurolog NL900D), digitized (1401, Cambridge Electronic Design, Cambridge, UK) and acquired using Spike 2.5 (Cambridge Electronic Design) at a 5 KHz sampling rate. A custom made, paired-platinum electrode was placed on right ventricle and used to deliver 2 ms ([…], twice the threshold) stimuli (GRASS S48 stimulator) to pace the heart at different intervals. The standard pacing protocol consisted of 8 Hz stimuli (basic cycle length, BCL 125 ms) and was delivered for 20 min to measure MAPs. This was followed by programmed electrically stimulation (PES) consisting of trains of eight paced stimuli at 125 ms BCL (S1) followed by an extra stimulus (S2). […] PES was repeated three times before and three times after the drug application in each heart. NAD^+ was perfused for 20 min to assess its anti-arrhythmic effect. Selected recordings were imported to Microsoft Excel for further statistical analysis. Average APD90 (action potential duration) was calculated by averaging 240 MAPs recorded at three different locations on each heart (80 MAPs at each location). These studies were approved by the Institutional Review Board.

[1] = system: human SCN5A fused at the C-terminus to GFP (SCN5A-GFP fusion); assay: Na+ channel tracking (confocal microscopy of SCN5A-GFP fusion in HEK cells); assay type: cell-based
Protocol: An SCN5A constructed fused at the C-Terminus to GFP (SCN5A-GFP fusion) was stably transfected in HEK cells and grown on glass bottom 14 mm microwell dishes (MatTek Corporation, Ashland, Mass., USA). A Nikon (Melville, N.Y.) Diaphot 200 inverted microscope with a fluorescent lamp was used to identify cells expressing GFP. Cells expressing GFP were transiently co-transfected with MT GPD1-L or incubated overnight with NADH. Fixation was performed by washing the coverslip three times with DPBS (Dulbecco's Phosphate Buffered Saline 1× of GIBCO) and exposing them to 4% paraformaldehyde in PBS at pH 7.4. […] GFP fluorescence was observed using a 507 nm narrow bandpass filter and a 60× oil 1.4 NA objective. Quantification was done using ImageJ software.
For these experiments, a construct of human SCN5A fused at the C-terminus to GFP (SCN5A-GFP fusion) was stably transfected in HEK cells and grown on the glass bottom of 14-mm microwell dishes (MatTek Corporation, Ashland, Mass., USA). […] For imaging Na^+ channels, GFP was excited at 488 nm with an argon ion 30 mW water-cooled laser, and GFP fluorescence was observed using a 507 nm narrow bandpass filter and a 60× oil 1.4 NA objective. Quantification was done using ImageJ software.

HEK 293 cell (SCN5A) = assay type: cell-based; conditions: human, 24 h
Protocol: Human embryonic kidney (HEK) cell line was used for all experiments. A HEK cell line stably expressing a SCN5A-IRES-GFP construct as described in our previous study (Arnold et al., Hearth Rhythm 4:46-53 (2007)) was maintained by antibiotic selection using 0.2 mg/mL Geneticin (G-8168, Sigma-Aldrich). Cells were cultured in Dulbecco's modified Eagle's medium (DMEM; ATCC, Manassas, Va.) with 10% fetal calf serum (ATCC) at 37° C. in 60 mm×15 mm cell culture dishes (Corning Incorporated, Corning, N.Y.) until 70-80% confluence. After reaching confluence, cells were exposed to NADH (Sigma, St. Louis, Mo.) or NAD^+ (Sigma) in culture medium for a total of 12-14 h in triplicate. Experiments were repeated three times. After dissociation with 0.125% trypsin-EDTA, 40 μL of 0.4% Trypan-blue (Sigma, St. Louis, Mo.) was added to each well, and a Trypan-blue exclusion viability assay was performed.
As previously described, we maintained a human embryonic kidney (HEK) cell line that stably expresses the human cardiac Na^+ channel (SCN5A) with antibiotic selection using 0.2 mg/mL geneticin (G-8168, Sigma-Aldrich, St. Louis, Mo.) (23). Expression of SCN5A was linked to green fluorescent protein (GFP) expression by an internal ribosomal entry site (SCN5A-IRES-GFP). Cells were cultured in Dulbecco's modified Eagle's medium (DMEM; ATCC, Manassas, Va.) with 10% fetal calf serum (ATCC) at 37° C. in 60 mm×15 mm cell culture dishes (Corning Incorporated, Corning, N.Y.) until 70-80% confluency. Then, cells were exposed to NADH or NAD^+ (both from Sigma-Aldrich) in culture medium for a total of 24 h. After dissociation with 0.125% trypsin-ethylenediaminetetraacetic acid (EDTA), 40 μL of 0.4% Trypan-blue (Sigma) was added to each well of a 6-well plate, and a Trypan-blue exclusion viability assay was performed. SCN5A cells were tolerant of a wide range of NADH or NAD^+ concentrations from 150 to 300 μM (data not shown). […] All NAD(H) containing solutions were made fresh daily.

[2] = target: T1, human cardiac Na^+ channel (SCN5A) (Homo sapiens, UniProt Q14524); assay: Whole-cell patch clamp Na+ current in HEK cells stably expressing SCN5A; assay type: cell-based; conditions: for effect on peak Na+ current (in words): versus SCN5A cells
T1 construct: expressed in transfected cells
T1 sequence (Q14524 whole entry): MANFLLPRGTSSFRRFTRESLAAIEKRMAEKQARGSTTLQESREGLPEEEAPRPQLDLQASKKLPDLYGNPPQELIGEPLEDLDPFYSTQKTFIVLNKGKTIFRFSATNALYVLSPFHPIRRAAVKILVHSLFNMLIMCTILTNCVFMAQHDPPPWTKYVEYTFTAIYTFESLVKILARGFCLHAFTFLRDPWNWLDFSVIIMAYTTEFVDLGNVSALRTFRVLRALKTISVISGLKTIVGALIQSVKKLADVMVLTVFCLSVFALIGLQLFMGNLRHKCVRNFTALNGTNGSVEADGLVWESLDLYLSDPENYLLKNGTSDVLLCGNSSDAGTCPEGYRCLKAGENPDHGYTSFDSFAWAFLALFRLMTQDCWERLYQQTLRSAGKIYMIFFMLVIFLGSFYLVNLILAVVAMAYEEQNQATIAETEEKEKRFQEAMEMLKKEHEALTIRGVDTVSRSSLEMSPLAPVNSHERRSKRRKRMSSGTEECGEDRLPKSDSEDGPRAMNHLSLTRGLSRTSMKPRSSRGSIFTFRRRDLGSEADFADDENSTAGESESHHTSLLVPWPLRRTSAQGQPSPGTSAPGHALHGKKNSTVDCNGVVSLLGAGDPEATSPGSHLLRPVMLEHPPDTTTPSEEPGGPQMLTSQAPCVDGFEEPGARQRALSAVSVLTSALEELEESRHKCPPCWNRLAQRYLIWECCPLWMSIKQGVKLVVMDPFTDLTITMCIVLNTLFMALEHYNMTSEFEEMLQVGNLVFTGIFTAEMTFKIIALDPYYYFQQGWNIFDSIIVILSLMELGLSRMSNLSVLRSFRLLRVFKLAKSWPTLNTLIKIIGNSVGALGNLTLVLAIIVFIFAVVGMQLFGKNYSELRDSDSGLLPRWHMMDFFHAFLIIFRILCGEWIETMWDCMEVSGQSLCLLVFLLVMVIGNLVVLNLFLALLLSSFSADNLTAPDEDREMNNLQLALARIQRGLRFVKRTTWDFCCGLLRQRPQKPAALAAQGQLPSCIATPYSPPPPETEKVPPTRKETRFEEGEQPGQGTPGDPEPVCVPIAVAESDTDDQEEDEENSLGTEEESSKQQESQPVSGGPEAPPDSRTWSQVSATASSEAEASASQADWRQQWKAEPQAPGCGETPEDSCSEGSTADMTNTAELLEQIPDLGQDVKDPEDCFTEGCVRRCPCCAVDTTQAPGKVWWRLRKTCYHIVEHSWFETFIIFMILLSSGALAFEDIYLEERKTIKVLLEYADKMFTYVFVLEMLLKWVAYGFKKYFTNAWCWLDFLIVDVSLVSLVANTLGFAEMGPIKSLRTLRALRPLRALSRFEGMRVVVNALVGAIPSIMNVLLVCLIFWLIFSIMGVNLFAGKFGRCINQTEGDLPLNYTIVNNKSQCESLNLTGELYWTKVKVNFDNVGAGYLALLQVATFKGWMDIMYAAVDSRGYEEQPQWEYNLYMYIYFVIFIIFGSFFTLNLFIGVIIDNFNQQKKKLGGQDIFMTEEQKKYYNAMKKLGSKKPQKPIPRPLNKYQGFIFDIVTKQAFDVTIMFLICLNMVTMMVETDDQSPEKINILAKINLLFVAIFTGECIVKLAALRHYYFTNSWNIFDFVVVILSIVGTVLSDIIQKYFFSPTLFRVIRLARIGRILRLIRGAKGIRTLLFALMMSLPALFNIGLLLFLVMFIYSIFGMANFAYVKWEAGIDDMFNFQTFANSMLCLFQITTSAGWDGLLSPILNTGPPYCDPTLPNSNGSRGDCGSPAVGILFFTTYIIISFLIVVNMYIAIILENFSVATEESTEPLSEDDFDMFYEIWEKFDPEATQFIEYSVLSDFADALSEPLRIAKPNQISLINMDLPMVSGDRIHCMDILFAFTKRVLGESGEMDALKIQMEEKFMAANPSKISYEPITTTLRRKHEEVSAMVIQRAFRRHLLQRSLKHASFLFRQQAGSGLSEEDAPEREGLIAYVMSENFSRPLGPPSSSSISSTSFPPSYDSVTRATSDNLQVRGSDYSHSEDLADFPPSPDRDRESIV
Protocol: HEK cells stably transfected with two different Na^+ channel constructs were used, SCN5A-IRES-GFP and SCN5A-GFP fusion constructs. Cloning and establishment of the cell lines has been delineated previously (11). The HEK 293 cell line stably expressing a SCN5A-IRES-GFP construct was maintained by antibiotic selection using Geneticin (G-8168, Sigma-Aldrich) at a concentration of 0.2 mg/mL was used for patch clamp study. GFP was used as a marker to identify cells expressing the cardiac Na^+ channel. The cells were cultured in 6 well plates with Dulbecco's Modified Eagle's medium (DMEM), 10% fetal bovine serum and 1% pen-strep. Cells were stored in a 5% CO2 incubator at 37° C. for 1-2 days. GPD1-L (the A280V mutant or wild-type) was transiently co-transfected into HEK 293 cells. GPD1-L vectors have been described in London et al.
The effects of external NADH or NAD^+ on sodium current were determined by incubating HEK 293 cells overnight (12-14 h) with NADH/NAD^+ (300 μM) added to the media. The effects of internal NADH or NAD^+ (100 μM) on sodium current were tested by adding the compounds to the pipette solution.
Cells expressing GFP were tested with the whole cell patch-clamp technique in voltage-clamp mode to measure Na^+ current levels. For patch-clamping, HEK cells were plated onto plastic coverslips 2-3 h before the recordings. Glass pipettes were pulled on a Sutter Model P-97 horizontal puller to a resistance of 1-2 MΩ. The glass pipettes were filled with a pipette solution containing (in mmol/L): CsCl 80, Cesium Aspartate 80, EGTA 11, MgCl2 1, CaCl2 1, HEPES 10, Na2ATP 5 and pH 7.4 with CsOH. The bath solution consisted of (in mmol/L): NaCl 130, CsCl 5, CaCl2 2, MgCl2 1.2, HEPES 10 and Glucose 5 (titrated to pH 7.4 with CsOH). Once a seal was established, a small amount of suction was applied to obtain the whole cell configuration. A stepped voltage protocol from −100 to +60 mV from a holding potential of −100 mV was applied to establish the presence of voltage-gated Na^+ channels. Currents obtained during steps to −10 mV were used for comparison in determining the relative reduction in sodium current. Cells were tested at 25° C. In all recordings, 80% of the series resistance was compensated, yielding a maximum voltage error of ˜1 mV. Data were sampled at 10 kHz and later filtered at 5 kHz for analysis. Currents were recorded and analyzed with an Axopatch 200B amplifier, Axon Digidata 1230A A/D converter and pClamp software (Molecular Devices Corporation, Sunnyvale, Calif.).
Using HEK 293 cells stably expressing the SCN5A-IRES-GFP construct, we measured the effect of treatments on the Na^+ current. Cells were cultured in 6-well plates in a […] incubator at 37° C. WT or MT GPD1-L was transiently transfected into HEK 293 cells as described previously in London et al. Other treatments included extracellular NADH or NAD^+ (300 μM) for […] or NADH or NAD^+ (100 μM) in the patch pipette solution. Apocynin (100 μM, Sigma) was added to cells 4-6 h prior to treatment with NADH and continuing for the entire extracellular NADH incubation. Na^+ current levels were measured from GFP-expressing cells using the whole-cell patch clamp technique in voltage-clamp mode at room temperature. HEK cells were dissociated by trypsin-EDTA, and replated onto plastic coverslips 2-3 h before the recordings. Glass pipettes were pulled on a Sutter Model P-97 horizontal puller to a resistance of 1-2 MΩ. The glass pipettes were filled with a pipette solution containing (in mM): CsCl 80, cesium aspartate 80, EGTA 11, MgCl2 1, CaCl2 1, HEPES 10, and Na2ATP 5 (adjusted to pH 7.4 with CsOH). The bath solution consisted of (in mM): NaCl 130, CsCl 5, CaCl2 2, MgCl2 1.2, HEPES 10 and Glucose 5 (adjusted to pH 7.4 with CsOH). Once a seal was established, a small amount of suction was applied to obtain the whole-cell configuration. […]

[3] = 100 μM intracellular (pipette solution), at 10 min
[4] = 300 μM extracellular, overnight incubation

In the case of `NC(=O)c1ccc[n+]([C@H]2O[C@@H](COP(=O)(O)OP(=O)(O)OC[C@@H]3O[C@H](n4cnc5c(N)ncnc54)[C@H](O)C3O)C(O)[C@H]2O)c1` (stereo partly drawn) [NAD^+, nicotinamide adenine dinucleotide], the “hearts in which PES failed to induce VT” value (SCN5A^+/− mouse heart; SCN5A+/- hearts after 20 min perfusion with 100 μM, VT in 6 out of 6 before) is reported as 5 out of 6, the “reversibility: hearts with PES-induced VTs after removal” value (SCN5A^+/− mouse heart; SCN5A+/- hearts, NAD+ removed) is reported as 4 out of 6 and reversible and the “MAP duration or morphology” value (SCN5A^+/− mouse heart; perfusion for 20 min with 100 μM) is reported as “no significant change”. The APD90 (SCN5A^+/− mouse heart; six SCN5A+/- hearts, 20 min perfusion with 100 μM, BCL 125 ms) was 27.9 ± 1.9 ms, the “effect on Na+ channel protein (GFP fluorescence, in words)” value ([1]; 300 μM overnight, versus control SCN5A-GFP cells) was “increased GFP fluorescence; also recorded: increases Na^+ channel protein” and the “tolerated concentration range (cell viability)” value (HEK 293 cell (SCN5A)) was 150 to 300 µM. For the same compound, the “effect on Na+ current density (in words)” value ([2]; 100 μM in internal (pipette) solution, versus SCN5A) was “significantly higher”, the “increase in Na+ current (peak current)” value [2, 3] was 77% and 66.6% and the “effect on peak Na+ current (in words)” value [2, 4] was “increase in peak current; also recorded: increased sodium current”. For the same compound, the “effect on peak Na+ current (in words)” value ([2]; 300 μM extracellular, overnight incubation, listed as NAD+) was “largely restored peak current”, the “increase in whole cell peak conductance” value ([2]; 300 μM extracellular, overnight, n=9) was 30.3% and the “effect on the Na+ current reduction caused by MT GPD1-L (A280V)” value ([2]; SCN5A cells co-transfected with MT GPD1-L, external NAD+ 300 μM) was “prevented the loss of peak current; also recorded: increased Na^+ current at all activation potential; also recorded: reverses the decrease in peak current; also recorded: largely prevented; also recorded: prevent the reduction in Na^+ current”. For the same compound, the “shift of activation curve” value ([2]; WT SCN5A cells, versus SCN5A cell) was “shift more positive” and the “shift of inactivation curve” value ([2]; versus SCN5A cell) was “more positive”.

For `COc1cc(C(C)=O)ccc1O` [apocynin, reference compound], the “effect on the NADH-induced reduction of Na+ current” value ([2]; apocynin 100 μM added 4-6 h before and during extracellular NADH incubation) was “abolished the effect of NADH on Na^+ current; also recorded: inhibited the effect of NADH on Na^+ currents”.

`NC(=O)C1=CN([C@@H]2O[C@H](COP(=O)(O)OP(=O)(O)OC[C@H]3O[C@@H](n4cnc5c(N)ncnc54)[C@H](O)[C@@H]3O)[C@@H](O)[C@H]2O)C=CC1` [NADH, nicotinamide adenine dinucleotide] was tested, and the “reduction in membrane-associated, GFP-tagged Na+ channels” value ([1]; overnight incubation with NADH, fluorescent microscopy) was 6.1 fold, the “tolerated concentration range (cell viability)” value (HEK 293 cell (SCN5A)) was 150 to 300 µM and the “tolerated concentration range (dose-dependent cell viability)” value (HEK 293 cell (SCN5A)) was 150 to 300 µmol/L. The “decrease in Na+ current (peak current)” value [2, 3] was 51% and 55.5%, the “decrease in whole cell peak conductance” value ([2]; 300 μM extracellular, overnight) was 71.4% and the “decrease in peak Na+ current” value [2, 4] was 65.7±6.6% and 74.9%.
